The record followed here is ChEMBL document CHEMBL3046365, “Insecticidal Activity of Pyridalyl: Acute and Sub-Acute Symptoms in Spodoptera litura Larvae” (2004).

Experiment [1] has as its system Spodoptera litura. Description: Insecticidal activity against fifth-instar Spodoptera litura larvae assessed as mortality compound applied topically measured after 3 days. It is filed as functional.
In experiment [2] the test system is Spodoptera litura. As to the kind of experiment: Acute insecticidal activity against fifth-instar Spodoptera litura larvae assessed as mortality at 100 ng applied topically measured after 6 hr. It is filed as functional.
In experiment [3] the test system is Spodoptera litura. Description: Insecticidal activity against fifth-instar Spodoptera litura larvae assessed as inhibition of emergence as adult at 1.56 to 25 ng applied topically. It is filed as functional, organism-based.
In experiment [4] the test system is Spodoptera litura. As to the kind of experiment: Insecticidal activity against fifth-instar Spodoptera litura larvae assessed as inhibition of ecdysis at 1.56 to 25 ng applied topically measured after 5 days. It is filed as functional, organism-based.
Experiment [5] has as its system Spodoptera litura. Description: Acute insecticidal activity against fifth-instar Spodoptera litura larvae assessed as decrease in mobility at 50 to 400 ng applied topically. It is filed as functional, organism-based.
Experiment [6] deals with Spodoptera litura. As to the kind of experiment: Insecticidal activity against fifth-instar Spodoptera litura larvae at 1.56 to 25 ng applied topically measured up to 1 day. It is filed as functional, organism-based.
The test system of experiment [7] is Spodoptera litura. Description: Acute insecticidal activity against fifth-instar Spodoptera litura larvae assessed as mortality at 400 ng applied topically measured after 2 hr. It is filed as functional.
Experiment [8] concerns Spodoptera litura. Description: Acute insecticidal activity against fifth-instar Spodoptera litura larvae assessed as decrease in vigor at 50 to 400 ng applied topically. It is filed as functional, organism-based.
The subject of experiment [9] is Spodoptera litura. Description: Insecticidal activity against fifth-instar Spodoptera litura larvae assessed as mortality at 25 ng applied topically measured after 5 days. It is filed as functional, organism-based.
For experiment [10], the system named is Spodoptera litura. As to the kind of experiment: Acute insecticidal activity against fifth-instar Spodoptera litura larvae assessed as decrease in body elasticity at 50 to 400 ng applied topically. It is filed as functional, organism-based.
In experiment [11] the test system is Spodoptera litura. Description: Acute insecticidal activity against fifth-instar Spodoptera litura larvae assessed as mortality at 50 ng applied topically measured within 3 days. It is filed as functional.
In experiment [12] the test system is Spodoptera litura. As to the kind of experiment: Insecticidal activity against fifth-instar Spodoptera litura larvae assessed as abnormal body shape at 1.56 to 25 ng applied topically. It is filed as functional, organism-based.
The subject of experiment [13] is Spodoptera litura. Description: Acute insecticidal activity against fifth-instar Spodoptera litura larvae assessed as mortality at 400 ng applied topically measured after 1 hr. It is filed as functional, organism-based.
For experiment [14], the system named is Spodoptera litura. As to the kind of experiment: Acute insecticidal activity against fifth-instar Spodoptera litura larvae assessed as mortality at 200 ng applied topically measured after 3 hr. It is filed as functional.
The test system of experiment [15] is Spodoptera litura. As to the kind of experiment: Acute insecticidal activity against fifth-instar Spodoptera litura larvae assessed as mortality at 50 ng applied topically measured after 6 hr. It is filed as functional, organism-based.
Experiment [16] has as its system Spodoptera litura. Description: Acute insecticidal activity against fifth-instar Spodoptera litura larvae assessed as flaccid paralysis at 50 to 400 ng applied topically. It is filed as functional, organism-based.
The subject of experiment [17] is Spodoptera litura. Description: Insecticidal activity against fifth-instar Spodoptera litura larvae assessed as mortality compound applied topically measured after 2 days. It is filed as functional.
Experiment [18] concerns Spodoptera litura. Description: Acute insecticidal activity against fifth-instar Spodoptera litura larvae assessed as mortality at 200 ng applied topically measured after 1 hr. It is filed as functional, organism-based.
The test system of experiment [19] is Spodoptera litura. Description: Insecticidal activity against fifth-instar Spodoptera litura larvae assessed as mortality at 1.56 to 25 ng applied topically measured after 5 days. It is filed as functional, organism-based.
In experiment [20] the test system is Spodoptera litura. As to the kind of experiment: Insecticidal activity against fifth-instar Spodoptera litura larvae assessed as mortality compound applied topically measured after 1 day. It is filed as functional.
Experiment [21] deals with Spodoptera litura. As to the kind of experiment: Insecticidal activity against fifth-instar Spodoptera litura larvae assessed as burn scar on the area where compound applied at 1.56 to 6.25 ng applied topically measured after 4 days. It is filed as functional, organism-based.

Molecules are shown by their SMILES. Calls of active or inactive are those of the source. The rule behind the calls is not given here.

As usually defined, the mortality is the percentage killed. `FC(F)(F)c1ccc(OCCCOc2c(Cl)cc(OCC=C(Cl)Cl)cc2Cl)nc1` [PYRIDALYL]: the figures for the LD50 in [1], in experiment [17] and in experiment [20] were 24.4 ng, 50.1 ng and 57.3 ng, respectively. The mortality in experiment [2] is 100%; in [7], 100%; in [11] it was more than 50%; in [14] it was 100%. Further, the result in experiment [3], in experiment [4], in experiment [5], in experiment [8], in experiment [9] and in experiment [10] was Active. The result in [13], in experiment [16], in experiment [18] and in [21] was Active. The result in experiment [6] and in experiment [15] was inactive. Moreover, the inhibition result in experiment [12] and in experiment [19] was “Active” each time.
